Data on three molecules can be found in the NIST ThermoML archive (doi:10.1016/j.jct.2012.01.001).

Numbers after ± are expanded uncertainties.

This data set can be described thus: Molar enthalpy of transition or fusion. The following applies: Crystal; DSC.
With `Oc1cccc2ccccc12` [1-naphthol], the “Molar enthalpy of transition or fusion” value was 5.17 ± 0.155 kcal/mol.
For `Oc1ccc2ccccc2c1` [2-hydroxynaphthalene], the “Molar enthalpy of transition or fusion” value stood at 5.04 ± 0.151 kcal/mol.
In the case of `COc1cc(C=O)ccc1O` [vanillin] it was 5.34 ± 0.16 kcal/mol.
